{
  "source": "patent US10934305B2",
  "about": "“SHMT inhibitors” (The Trustees of Princeton University, priority 2016, dated 2021)",
  "key": {"human SHMT2": {"target": "human SHMT2 (Homo sapiens (Human), UniProt P34897)", "sequence (P34897 30-504)": "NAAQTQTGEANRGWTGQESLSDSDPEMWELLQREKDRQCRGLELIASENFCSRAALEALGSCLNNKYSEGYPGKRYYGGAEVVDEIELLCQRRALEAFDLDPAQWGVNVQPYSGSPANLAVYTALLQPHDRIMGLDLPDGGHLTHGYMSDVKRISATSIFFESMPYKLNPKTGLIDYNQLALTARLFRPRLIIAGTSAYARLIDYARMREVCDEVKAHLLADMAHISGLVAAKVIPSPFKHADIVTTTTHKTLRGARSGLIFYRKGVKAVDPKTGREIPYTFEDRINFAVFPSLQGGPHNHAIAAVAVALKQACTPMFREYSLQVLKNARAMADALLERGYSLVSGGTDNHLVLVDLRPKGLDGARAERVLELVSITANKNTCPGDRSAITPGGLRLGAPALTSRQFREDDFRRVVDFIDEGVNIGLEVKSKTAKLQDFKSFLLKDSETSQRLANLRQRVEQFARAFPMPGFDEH", "assay": "SHMT2 in vitro enzymatic assay (coupled with MTHFD2, NADH absorption at 340 nm)", "assay_type": "biochemical", "details": "SHMT2 IC50 (μM), Table 2", "quoted_text": "Inhibition of human SHMT by compounds in this disclosure is evaluated, for example, in their racemic forms in an in vitro assay.\nFor the SHMT1 and SHMT2 in vitro enzymatic assays, the rate of 5,10-methylene tetrahydrofolate formation catalyzed by SHMT1/2 was indirectly evaluated by coupling with excess MTHFD2, which converts NAD+ to NADH allowing for reaction monitoring by absorption at 340 nm. […] Inhibition of initial reaction velocity was determined by adding various inhibitors at different concentrations and monitored as described. IC50 may be calculated based on this assay."}, "HCT116 cells [1]": {"system": "HCT116 cells", "assay": "Formate rescue assay in cell growth assay", "assay_type": "cell-based, human", "details": "for rescue of effects on cell growth by addition of formate: Table 5 cells", "description": "Application of formate is shown to rescue the anti-growth effect in certain human cells treated with SHMT inhibitors in a cell growth assay.\n(§1) The described cell lines for Examples 8 and 9 are cultured in 96-well plates in Dulbecco's modified eagle media (DMEM) without pyruvate (CELLGRO) with 10% dialysed fetal bovine serum (Invitrogen) in 5% CO2 at 37° C. Approximately 2,500 cells are plated in each well in 90 uL of media. After 24 hours cells are treated with various concentrations of inhibitor (time=0 hours), with or without formate. Growth was assessed at multiple time points (time=0, 24, 48, 72 hours) through measurement of fluorescence at 595 nm (excitation at 535 nm) on a BioTek micro titer plate reader after incubation with resazurin (0.01 mg/mL for 1.5 hours). IC50 curves are generated from percent inhibition of growth at 72 hours."}, "HCT116 cells [2]": {"system": "HCT116 cells", "assay": "Cell growth assay (resazurin), HCT116 wild-type", "assay_type": "cell-based, human", "description": "(§2) Inhibitors of SHMT were evaluated in various cancer cell lines, in the presence and absence of mutations in mitochondrial folate pathway enzymes.\nas §1"}, "[3]": {"system": "SHMT2 knock-out HCT116 cells", "assay": "Cell growth assay, SHMT2 deletion (knock-out) HCT-116 cells", "assay_type": "cell-based, human", "details": "FIG. 3B", "description": "as §2, §1\nClonal deletion cell lines of SHMT1, SHMT2, and SHMT1/2 were generated from the human colorectal carcinoma cell line HCT-116. Paired Cas9 nickase (Cas9n) containing constructs that encoded single-guide RNA sequences targeting SHMT1 or 2 were transiently transfected into cells, and mutant colonies from single clones were picked as described in Ducker et al., (2016) Reversal of Cytosolic One-Carbon Flux Compensates for Loss of the Mitochondrial Folate Pathway, Cell Metab 23, 1140-1153. […]"}, "Jurkat cells": {"system": "Jurkat cells", "assay": "Cellular growth assay, Jurkat T-cell leukemia line", "assay_type": "cell-based, human", "details": "5 μM inhibitor + 1 mM sodium formate", "description": "(§3) Jurkat, REH, Farage, Daudi, Su-DHL2, Su-DHL-4, Su-DHL-6 cells were purchased from ATCC. Cells were subcultured in RPMI supplemented with 10% FBS. For growth assays, cells were seeded at 2×10^5/mL in 5 mL growth media in 12.5 cm flasks. Media was supplemented with sodium formate (1 mM), additional glycine (100 mg/L) and an SHMTi (5 uM). Cells were sampled daily, and counted using trypan blue staining and light microscopy."}, "Su-DHL-2 cells": {"system": "Su-DHL-2 cells", "assay": "Cellular growth assay (cell count), Su-DHL-2 DLBCL line", "assay_type": "cell-based, human", "details": "Su-DHL-2, 5 μM inhibitor + 1 mM formate", "description": "as §3"}, "Su-DHL4 cells [4]": {"system": "Su-DHL4 cells", "assay": "Cellular growth assay, Su-DHL4 DLBCL line", "assay_type": "cell-based, human", "details": "SU-DHL4, RPMI, FIG. 12C", "description": "as §3"}, "8988T cells": {"system": "8988T cells", "assay": "Growth of pancreatic cancer cell line 8988T", "assay_type": "cell-based, human", "details": "FIG. 9E"}, "Su-DHL4 cells [5]": {"system": "Su-DHL4 cells", "assay": "Apoptosis by flow cytometry (Annexin V surface staining)", "assay_type": "cell-based, human", "description": "Apoptosis was enhanced by co-treatment with formate. In contrast, as expected, formate rescued Jurkat E6-1 leukemia cells from apoptosis (FIG. 11C). Without wishing to be bound by theory, it is hypothesized that the failure of formate to rescue growth in the DLBCL cell lines is due to a requirement for both glycine and 1C units made by SHMT in these cells. When glycine is limiting, formate can enhance the cytotoxicity of SHMT inhibition. […] Mechanistically, by supplying 5,10-methylene-THF, formate may drives residual SHMT enzymatic function in the […] direction.\nIn contrast, cell growth is further decreased in Su-DHL4 cells by addition of formate. This can be further exacerbated by removal of glycine from the media. […] Using flow cytometry, apoptosis of Su-DHL4 cells were studied with AnnexinV surface staining (FIGS. 12D and 12E)."}},
  "data": [
    {"smiles": "Cc1n[nH]c2c1C(c1cc(C#CCCC(=O)O)cc(C(F)(F)F)c1)(C(C)C)C(C#N)=C(N)O2", "note": "(racemic) [1 (enantiomeric mixture)]", "values": [
      {"measurement": "IC50", "setting": "human SHMT2", "value": 0.00065, "unit": "µM"}
    ]},
    {"smiles": "Cc1n[nH]c2c1C(c1cc(C#CCCC(=O)O)cc(C(F)(F)F)c1)(C(C)C)C(C#N)=C(N)O2", "note": "(stereo not drawn) [1 (enatiomerically active peak)]", "values": [
      {"measurement": "IC50", "setting": "human SHMT2", "value": 0.00079, "unit": "µM"},
      {"measurement": "% formate rescue", "setting": "HCT116 cells [1]; HCT cells, Table 2", "value": 94.96, "unit": "%"},
      {"measurement": "IC50", "setting": "HCT116 cells [2]; Table 2, read-out: HCT Cell IC50", "value": 1360, "unit": "nM"}
    ]},
    {"smiles": "Cc1n[nH]c2c1C(c1cc(C#CCCCO)cc(C(F)(F)F)c1)(C(C)C)C(C#N)=C(N)O2", "note": "(stereo not drawn) [Compound 61, 6-amino-4-(3-(5-hydroxypent-1-yn-1-yl)-5-(trifluoromethyl)phenyl)-4-isopropyl-3-methyl-1,4-dihydropyrano[2,3-c]pyrazole-5-carbonitrile]", "values": [
      {"measurement": "growth of SHMT2 knock-out HCT116 cells versus native", "setting": "[3]", "value": "increased potency"},
      {"measurement": "growth (proliferation) of HCT116 cells", "setting": "HCT116 cells [2]; native HCT116, FIG. 3A", "value": "inhibited growth"}
    ]},
    {"smiles": "Cc1n[nH]c2c1[C@@](c1cc(C(F)(F)F)cc(C(F)(F)F)c1)(C(C)C)C(C#N)=C(N)O2", "note": "[HK-16 (PK-2)]", "values": [
      {"measurement": "rescue of growth inhibition by formate", "setting": "Jurkat cells", "value": "significantly rescued"},
      {"measurement": "rescue of growth inhibition by formate", "setting": "Su-DHL-2 cells", "value": "not rescued"}
    ]},
    {"smiles": "Cc1n[nH]c2c1C(c1cc(N3CCCC3)cc(C(F)(F)F)c1)(C(C)C)C(C#N)=C(N)O2", "note": "(stereo not drawn) [HK-X1]", "values": [
      {"measurement": "rescue of effects on cell growth by addition of formate", "setting": "HCT116 cells [1]", "value": "rescued"}
    ]},
    {"smiles": "Cc1n[nH]c2c1C(c1cc(CO)cc(-c3ccccc3)c1)(C(C)C)C(C#N)=C(N)O2", "note": "(stereo not drawn) [HK-X2]", "values": [
      {"measurement": "IC70", "setting": "Su-DHL4 cells [4]", "value": 5000, "unit": "nM"},
      {"measurement": "concentration impairing cell growth", "setting": "8988T cells", "value": "< 100", "unit": "nM"},
      {"measurement": "apoptotic fraction of cells", "setting": "Su-DHL4 cells [5]; Su-DHL4, inhibitor alone (control 2%)", "value": 8, "unit": "%"},
      {"measurement": "apoptotic fraction of cells", "setting": "Su-DHL4 cells [5]; Su-DHL4, inhibitor in the presence of formate", "value": 15, "unit": "%"},
      {"measurement": "apoptosis by Annexin V surface staining", "setting": "Su-DHL4 cells [5]; Su-DHL-4", "value": "induced apoptosis"},
      {"measurement": "rescue of effects on cell growth by addition of formate", "setting": "HCT116 cells [1]", "value": "rescued"}
    ]}
  ]
}
